Measured values taken from patent US20240287054A1, “COMPOUNDS THAT BIND NON-CANONICAL G-QUADRUPLEX STRUCTURES AND METHODS OF MAKING AND USING THE SAME” (The U.S.A., as Represented by the Secretary, Department of …, priority 2021, published 2024).

What was measured:
MYCN G4 DNA [1] = assay: Circular dichroism (CD) thermal melting assay of MYCN G4; assay type: binding, human; conditions: 10 mM sodium phosphate pH 7.0, 5 mM KCl, 5 μM DNA
Description: For thermal melt assay, MYCN oligonucleotides were prepared in a low KCl buffer (10 mM Tris, pH7.0, 5 mM KCl) at 5 μM concentration. To test the stabilization effect, G4 samples were incubated with and without 20 μM compound (final solution containing 5% DMSO). Then a total of 300 μL solution was added in a cuvette and heated from 20° C. to 95° C. in a CD spectrometer with an interval of 1° C. To calculate the melting temperature (Tm), the peak of CD spectrum at 263 nm was tracked, and […] vs temperature was plotted and fitted using a nonlinear sigmoidal dose-response model with a variable slope in GraphPad Prism 8 software. The shifting of melting temperature (ΔTm) was calculated using Tm (compound)−Tm (DMSO).
For CD melting assay, MYCN oligonucleotides were prepared in KCl buffer (10 mM sodium phosphate, pH7.0, 5 mM KCl) at 5 μM concentration. To test the stabilization effect of the compounds, MYCN G4 DNA samples were mixed with/without the compound (final solution containing 5% DMSO) at designed concentration. Then a total of 300 μL solution was added in a cuvette and heated from 20 to 80° C. in a CD spectrometer with an interval of 1° C. To calculate the melting temperature (Tm), the peak of CD spectrum at 263 nm was tracked, and […] vs temperature was plotted and fitted using a nonlinear sigmoidal dose-response model with a variable slope in GraphPad Prism 8 software.

MYCN G4 DNA [2] = assay: Surface plasmon resonance (SPR) with immobilized biotinylated MYCN G4 DNA; assay type: binding, human
Description: Surface plasmon resonance (SPR) analysis. The SPR binding assays were performed with a BIAcore 3000 (GE Healthcare) instrument. A CM5 SPR biochip was loaded into the system and primed with running buffer (10 mM Tris, pH7.0, 100 mM KCl, 0.005% Tween 20, 5% DMSO) with a flow rate of 5 μL/min. Then both Flow Cell (Fc) 1 and 2 were activated by EDC/NHS (0.4 M/0.1 M) aqueous solution for 15 min, followed with an injection of streptavidin (SA) solution (0.2 mg/mL in 10 mM sodium acetate buffer, pH4.5) for 30 minutes. After the immobilization amount of SA reached 8,000-10,000 RU, the surface was deactivated by flowing 1 M Ethanolamine aqueous solution (pH 8.5) for 10 min and regenerated with 10 mM NaOH for 2 min to remove the unbound SA. In the meantime, biotinylated MYCN G4 DNA was prepared at 5 μM in the annealing buffer and heated up to 95° C. for 5 min and slowly cooled down. After annealing, a total of 150 μL solution was injected in the Fc 2 of SPR system for 30 min to immobilize DNA onto the chip surface. The small molecule solutions were tested once the baseline was stable.
To detect the binding signal as well as the binding affinity, a higher flowing rate (25 μL/min) was used in both Fc 1 (reference) and Fc 2 (DNA). Each of the compound solution was prepared at 20× designed the concentrations in DMSO, and then diluted into non-DMSO running buffer, resulting in a final concentration of 5% DMSO. Then, a total of 50 μL compound solution was injected in Fc 1-2 flow path for 120 s for association, followed with 200 s running of buffer for dissociation. An injection of 50 μL regeneration buffer (1 M KCl) could be performed between two samples if necessary. The final binding curve was obtained by reference subtraction. To determine the binding affinity (KD), a series of diluted compound solutions were injected and KD was calculated by BIAevaluation 4.0 software (GE Healthcare) using Langmuir 1:1 binding model.
In this example, SPR binding assays were performed to analyze binding activity of representative bivalent compounds of the present disclosure. The compounds of this example included a non-canonical binder component and a G4 stacker component. A BIAcore 3000 (GE Healthcare) instrument was used. A CM5 SPR biochip was used and primed with running buffer (10 mM Tris, pH7.0, 100 mM KCl, 0.005% Tween 20, 5% DMSO). To immobilize the compounds onto the chip surface, the flow rate was set as 5 μL/min. Then the carboxylated dextran on the chip surface was activated by EDC/NHS (0.4 M/0.1 M) aqueous solution for 15 min, followed with an injection of streptavidin (SA) solution (0.2 mg/mL in 10 mM sodium acetate buffer, pH 4.5) for 30 minutes. After the immobilization amount of SA, the surface was quenched by injecting 1 M ethanolamine (EA) aqueous solution (pH 8.5) for 10 min and regenerated with 10 mM NaOH for 2 min to remove the physical adsorption. Furthermore, biotinylated MYCN G4 DNA was prepared at 5 μM in the annealing buffer and heated up to 95° C. for 5 min followed with slowly cooling down to room temperature within 1 h. After annealing, a total of 150 μL solution was injected in the Fc 2 of SPR system for 30 min to immobilize DNA onto the chip surface. The compound solutions were then tested once the baseline was stable.
To detect the binding signal as well as the binding affinity, a higher flowing rate (25 μL/min) was used in both Fc 1 (blank) and Fc 2 (target). Each of the compound solutions was prepared at 20× designed the concentrations in DMSO, and then diluted into non-DMSO running buffer, resulting in a final concentration of 5% DMSO. Then, a total of 50 μL compound solution was injected in Fc 1-2 flow path for 120 s for association, followed with 200 s running of buffer for dissociation. An injection of 50 μL regeneration buffer (1 M KCl) could be performed between two samples if necessary. The final binding curve was obtained by referencing the blank channel (Fc 1). […]

dsDNA = assay: SPR binding to dsDNA; conditions: up to 5 μM compound injection
MYCN hairpin-G4 DNA = assay: FIA using compound fluorescence (Ex 340/Em 500 nm), titration with unlabeled MYCN G4 DNA; assay type: binding, human; conditions: 100 nM compound titrated with folded unlabeled MYCN G4
Description: In this study, FIA was used for validating the bindings between certain bivalent and MYCN G4 oligos. To measure the binding affinity, a solution of each compound was prepared in triplicate in a 96 well-plate (Costar, black side clear bottom), resulting in a final concentration of 100 nM (5% final DMSO in the working solution). Unlabeled MYCN G4 DNA was folded based on the above-mentioned annealing method, then added into the well plate resulting in different concentrations by a seral dilution. The plate was incubated at room temperature for 30 min, followed by centrifuging at 500 rpm for 2 minutes. The fluorescence intensity was then quantitatively recorded by a Synergy Mx microplate reader (BioTek) at Ex 340 nm/Em 500 nm. The fluorescence intensities were then normalized, and the binding affinity was calculated by fitting the curve using one-site total model in GraphPad Prism 8.3.1 software.

`COc1ccc2nc3cc(Cl)ccc3c(NCCCNCCCl)c2c1` [Acridine ICR 191, reference compound] was tested, and the “ΔTm of MYCN G4” value (MYCN G4 DNA [1]) was 4.6 °C, the SPR binding kinetics (MYCN G4 DNA [2]; MYCN G4 binding curves) was “fast-on/off” and the Kd (MYCN G4 DNA [2]; MYCN hairpin G4, SPR titration, read-out: KD by SPR) was 821 ± 184 nM. For the same compound, the “binding to dsDNA on SPR” value (dsDNA) was “dose-dependent binding signals” and the Kd (MYCN hairpin-G4 DNA) was 1040 ± 150 nM.
